Measured values as given in EP0103895A2, “Novel hydroxylamine derivatives, production and use thereof” (MEIJI SEIKA KABUSHIKI KAISHA, priority 1982, dated 1984).
Several values for one entry are separate records, joined by “and”; a condition that tells them apart may be missing. Equal values may be shown once. Read-outs that look alike come from different tables or passages of the source.

Columns and labels:
[1] = system: canine whipworm (Trichuris vulpis); test: Anthelmintic test in naturally infected dogs with mixed infections, E.P.G. on 7th day: canine whipworm (Test Examples A3, B3, C3, D3); assay type: in vivo
Procedure: (§1) Three dogs with mixed infections by canine whipworm (Trichuris vulpis), canine hookworm (Ancylostoma caninum) and canine roundworm (Toxocara canis) (naturally infected dogs) were employed in a group of two and a group of one.
(§2) The compound provided for the test was Compound No.Al, and 20 mg/Kg thereof was placed in a gelatin capsule per 1 Kg of body weight, and administered orally to the two dogs. As control, only a gelatin capsule was administered orally to the one dog.
(§3) Before administration and on the 7th day after administration, fecal matter testing was conducted to calculate the E.P.G., and the anthelmintic effect was judged by the changing of the E.P.G. to negative.
(§4) As control, only gelatin capsules were administered orally to the one dog.
(§5) The same method as in Test Example A3, but the compound provided for the test was Compound No. Cl. 30 mg/Kg of this compound was placed in a gelatin capsule per 1 Kg of body weight and administered orally to the two dogs. As control, only gelatin capsules were administered orally to the one dog.

[2] = system: stomach worm (Haemonchus controtus); test: Anthelmintic test against cow stomach worm in naturally infected cows, E.P.G. on 7th day (Test Examples A6, B6, C6, D6); assay type: in vivo; conditions: cows
Procedure: Three cows infected with stomach worm (naturally infected cows) were employed by grouping them into a group of two and a group of one.
(§6) As control, only gelatin capsules were administered orally to the one cow.
as §3, §6, §6

[3] = system: Liver fluke; Fasciola hepatica (F. hepatica); test: Test of anthelmintic effect against rat infected experimentally with liver fluke (Test Examples A11, B11, C11, D11); assay type: in vivo
[4] = system: canine hookworm (Ancylostoma caninum); test: Anthelmintic test in naturally infected dogs with mixed infections, E.P.G. on 7th day: canine hookworm (Test Examples A3, B3, C3, D3); assay type: in vivo; conditions: dogs, 30 mg/Kg orally once, one value per dog
Procedure: as §1, §2, §3, §4, §5

[5] = system: swine Oesophagostomum (Oesophagostomum dentatum); test: Test of anthelmintic effect against swine Oesophagostomum in naturally infected pigs, E.P.G. on 7th day (Test Examples A8, B8, C8, D8); assay type: in vivo; conditions: pigs
Procedure: Six pigs infected with swine Oesophagostomum (naturally infected pigs) were employed by grouping them into groups each of two pigs.
As a control, only gelatin capsules were administered orally to the two pigs.
as §3

[6] = system: canine roundworm (Toxocara canis); test: Anthelmintic test in naturally infected dogs with mixed infections, E.P.G. on 7th day: canine roundworm (Test Examples A3, B3, C3, D3); assay type: in vivo; conditions: dogs, 30 mg/Kg orally once, one value per dog
Procedure: as §1, §2, §3, §4, §5

[7] = system: canine filaria; Dirofilaria immitis; test: Test of anthelmintic effect against canine filaria in naturally infected dogs, subcutaneous injection, microfilaria in blood and adult filaria at autopsy (Test Examples A10, B10, C10, D10); assay type: in vivo; conditions: for inhibition in vivo at 30 mg/kg: Dirofilaria immitis, sc, 240 h
[8] = system: Diphyllobothrium erinacei; test: Test of anthelmintic effect against Diphyllobothrium erinacei (tapeworm) in experimentally infected cats (Test Examples A5, B5, C5, D5)
[9] = system: fowl roundworm (As. galli); test: Anthelmintic test in chickens artificially infected with fowl roundworm, compound added to feed, E.P.G. and worm count up to 21st day (Test Examples A2, B2, C2, D2); assay type: in vivo, Ascaridia galli; conditions: Ascaridia galli, po, 504 h, chickens, worm count on 21st day, one value per chicken, read-out: Anthelmintic effect

SMILES: C=CCN(OC)C(C)=O [Compound B1, N-allyl-N-acetyl-O-methylhydroxylamine]
- anthelmintic effect ([1]; dogs with mixed infections (Trichuris vulpis, Ancylostoma caninum, Toxocara canis; statement covers all three), one administration of 30 mg/Kg): marked anthelmintic effect
- Change of E.P.G. Before administration ([1]; dogs, 30 mg/Kg orally once, Trichuris vulpis, baseline, one value per dog, 30 mg/kg): 5,100 E.P.G. and 2,700 E.P.G.
- Change of E.P.G. 7th day ([1]; dogs, 30 mg/Kg orally once, Trichuris vulpis, one value per dog): 0 E.P.G.
- Change of E.P.G. Before administration ([2]; 20 mg/Kg orally once, baseline, one value per cow, 20 mg/kg): 2,500 E.P.G. and 3,300 E.P.G.
- Change of E.P.G. 7th day ([2]; 20 mg/Kg orally once, one value per cow): 0 E.P.G.
- anthelmintic effect ([2]; one administration of 20 mg/Kg): marked anthelmintic effect
- Condition of fluke body ([3]; rat, 50 mg/Kg x 5): dead
- Presence or absence of fluke egg in fecal matter On 21st day after the last administration ([3]; rat, 50 mg/Kg x 5): -
- anthelmintic effect ([3]; rats, five administrations in a dose of 50 mg/Kg each): marked antihelmintic effect
- Change of E.P.G. Before administration ([4]; baseline, 30 mg/kg): 4,500 E.P.G. and 8,700 E.P.G.
- Change of E.P.G. 7th day [4]: 0 E.P.G.
- Change of E.P.G. Before administration ([5]; 20 mg/Kg orally once, baseline, one value per pig, 20 mg/kg): 1,200 E.P.G. and 2,600 E.P.G.
- Change of E.P.G. 7th day ([5]; 20 mg/Kg orally once, one value per pig): 0 E.P.G.
- anthelmintic effect ([5]; one administration of 20 mg/Kg): marked anthelmintic effect
- Change of E.P.G. Before administration ([6]; baseline, 30 mg/kg): 6,100 E.P.G. and 3,200 E.P.G.
- Change of E.P.G. 7th day [6]: 0 E.P.G.
- inhibition in vivo at 30 mg/kg ([7]; dog, 30 mg/Kg x 3, subcutaneous injection, read-out: Effect on adult filaria: Percent of worms killed): 58%
- inhibition in vivo at 30 mg/kg ([7]; dogs, administration of 30 mg/Kg repeated three times, given as about 50% or more, read-out: anthelmintic effect against adult filaria): ≥ 50%
- Number of microfilaria/20 µl on 10th day after the last administration ([7]; dog, 30 mg/Kg x 3, subcutaneous injection, suspension in 1% Tween 80): 0 /20 µl
- Effect on adult filaria: Number of worms killed/ Total parasite ([7]; dog, 30 mg/Kg x 3, subcutaneous injection, 30 mg/kg): 8/15 and 12/21
- anthelmintic effect against microfilaria (mf) ([7]; dogs, administration of 30 mg/Kg repeated three times): marked anthelmintic effect
- Number of worm bodies remaining in enteron ([8]; cats infected with 5 plerocercoids, 50 mg/Kg x 5 times orally, autopsy ten days after administration, one value per cat): 0
- Worm egg detection on 10th day after administration ([8]; cats, 50 mg/Kg x 5 orally, one value per cat (Table B7)): -
- anthelmintic effect ([8]; cats, 5 continuous administrations of 50 mg/Kg): marked anthelmintic effects
- inhibition in vivo at 20 ppm ([9]; 20 ppm added to feed): 80 to 90%
- inhibition in vivo at 50 ppm ([9]; 50 ppm added to feed): 100%
